Test: xn = mol fraction of the nth substance listed
Details: for speed of sound: 100 kPa, Pulse-echo method; for speed of sound / viscosity / mass density: Liquid; for viscosity / mass density: 101 kPa; for viscosity: Concentric cylinders viscometry; for mass density: Vibrating tube method; for surface tension liquid-gas: 294.7 K, Drop volume

CC(CC(C)(C)C)CC(C)(C)C [2,2,4,6,6-pentamethylheptane] + CCCCCCCCCCCC
Details | mass density [kg/m3] | speed of sound [m/s] | viscosity [mPa·s]
293.15 K, x1 = 0.1 | 748.467 | 1288.5 | 1.45
293.15 K, x1 = 0.2 | 748.123 | 1279.3 | 1.42
293.15 K, x1 = 0.2885 | 747.857 | 1271.4 | 1.4
293.15 K, x1 = 0.3998 | 747.387 | 1261.4 | 1.37
293.15 K, x1 = 0.4999 | 747.034 | 1251.6 | 1.35
293.15 K, x1 = 0.6501 | 746.519 | 1238 | 1.33
293.15 K, x1 = 0.7998 | 745.947 | 1223.2 | 1.31
293.15 K, x1 = 1 | – | 1203.6 | –
303.15 K, x1 = 0.1 | 741.234 | 1250.3 | 1.22
303.15 K, x1 = 0.2 | 740.898 | 1241.1 | 1.2
303.15 K, x1 = 0.2885 | 740.654 | 1233.2 | 1.18
303.15 K, x1 = 0.3998 | 740.15 | 1223.2 | 1.16
303.15 K, x1 = 0.4999 | 739.835 | 1213.4 | 1.15
303.15 K, x1 = 0.6501 | 739.313 | 1199.6 | 1.13
303.15 K, x1 = 0.7998 | 738.715 | 1184.7 | 1.12
303.15 K, x1 = 1 | – | 1164.8 | –
313.15 K, x1 = 0.1 | 733.97 | 1212.5 | 1.03
313.15 K, x1 = 0.2 | 733.64 | 1203.3 | 1.02
313.15 K, x1 = 0.2885 | 733.415 | 1195.5 | 1
313.15 K, x1 = 0.3998 | 732.953 | 1185.4 | 0.988
313.15 K, x1 = 0.4999 | 732.598 | 1175.7 | 0.977
313.15 K, x1 = 0.6501 | 732.066 | 1161.8 | 0.962
313.15 K, x1 = 0.7998 | 731.445 | 1146.8 | 0.952
313.15 K, x1 = 1 | – | 1126.7 | –
323.15 K, x1 = 0.1 | 726.674 | 1175.3 | 0.898
323.15 K, x1 = 0.2 | 726.352 | 1166.2 | 0.885
323.15 K, x1 = 0.2885 | 726.139 | 1158.3 | 0.876
323.15 K, x1 = 0.3998 | 725.68 | 1148.3 | 0.863
323.15 K, x1 = 0.4999 | 725.324 | 1138.5 | 0.856
323.15 K, x1 = 0.6501 | 724.781 | 1124.6 | 0.844
323.15 K, x1 = 0.7998 | 724.136 | 1109.5 | 0.836
323.15 K, x1 = 1 | – | 1089.3 | –
333.15 K, x1 = 0.1 | 719.342 | 1138.7 | 0.784
333.15 K, x1 = 0.2 | 719.024 | 1129.6 | 0.774
333.15 K, x1 = 0.2885 | 718.82 | 1121.7 | 0.766
333.15 K, x1 = 0.3998 | 718.363 | 1111.7 | 0.757
333.15 K, x1 = 0.4999 | 718.004 | 1101.9 | 0.75
333.15 K, x1 = 0.6501 | 717.449 | 1087.9 | 0.741
333.15 K, x1 = 0.7998 | 716.783 | 1072.8 | 0.734
333.15 K, x1 = 1 | – | 1052.5 | –
343.15 K, x1 = 0.1 | 711.9 | – | 0.691
343.15 K, x1 = 0.2 | 711.7 | – | 0.683
343.15 K, x1 = 0.2885 | 711.5 | – | 0.677
343.15 K, x1 = 0.3998 | 710.9 | – | 0.668
343.15 K, x1 = 0.4999 | 710.6 | – | 0.664
343.15 K, x1 = 0.6501 | 710 | – | 0.656
343.15 K, x1 = 0.7998 | 709.4 | – | 0.651
353.15 K, x1 = 0.1 | 704.4 | – | 0.614
353.15 K, x1 = 0.2 | 704.1 | – | 0.607
353.15 K, x1 = 0.2885 | 703.8 | – | 0.603
353.15 K, x1 = 0.3998 | 703.5 | – | 0.595
353.15 K, x1 = 0.4999 | 703 | – | 0.591
353.15 K, x1 = 0.6501 | 702.5 | – | 0.584
353.15 K, x1 = 0.7998 | 701.8 | – | 0.58
363.15 K, x1 = 0.1 | 696.8 | – | 0.551
363.15 K, x1 = 0.2 | 696.5 | – | 0.545
363.15 K, x1 = 0.2885 | 696.3 | – | 0.526
363.15 K, x1 = 0.3998 | 695.8 | – | 0.534
363.15 K, x1 = 0.4999 | 695.4 | – | 0.531
363.15 K, x1 = 0.6501 | 694.8 | – | 0.525
363.15 K, x1 = 0.7998 | 694.1 | – | 0.521
373.15 K, x1 = 0.1 | 689 | – | 0.498
373.15 K, x1 = 0.2 | 688.8 | – | 0.493
373.15 K, x1 = 0.2885 | 688.6 | – | 0.49
373.15 K, x1 = 0.3998 | 688.1 | – | 0.483
373.15 K, x1 = 0.4999 | 687.7 | – | 0.481
373.15 K, x1 = 0.6501 | 687.1 | – | 0.476
373.15 K, x1 = 0.7998 | 686.3 | – | 0.472

Details | surface tension liquid-gas [mN/m]
x1 = 0.1 | 24.3
x1 = 0.2 | 24.1
x1 = 0.2885 | 23.7
x1 = 0.3998 | 23.3
x1 = 0.4999 | 23.2
x1 = 0.6501 | 22.7
x1 = 0.7998 | 22.3
x1 = 1 | 21.8
